Marks after values point to notes of the source that are not given here.
Key:
[1] = tested on: model of bronchial asthma in guinea pigs; assay: Content of cell elements in BAL in the model of bronchial asthma in guinea pigs; assay type: in vivo, guinea pig; details: Table 4; 14 mg/kg, 10 times of administration; n = 9
Protocol: Bronchial asthma in guinea pigs was induced by a standard method [Ricciardolo F L, Nijkamp F, De Rose V, Folkerts G. The guinea pig as an animal model for asthma// Current Drug Targets. 2008 June; 9(6):452-65]. The animals were immunized by one parenteral administration of 0.5 mL of a solution comprising 100 μg/mL ovalbumin (Sigma) and 100 mg/mL aluminium hydroxide. Intact animals received a physiological saline solution in an amount of 0.5 mL.
On days 29, 30 and 31, hyperactivity of the respiratory airways was provoked by inhalation administration of ovalbumin in ascending concentrations of 0.1, 0.3, and 0.5 mg/mL on days 1, 2, and 3 of the provocation, respectively. The inhalation lasted 5 minutes or until asphyxia symptoms became apparent (fall to one side). On day 32, the animals received a challenging dose of ovalbumin (1 mg/mL) for 5 minutes, while assessing a bronchospastic reaction.
The studied compounds were administered to the animals once daily every day for 6 or 10 days; the administration was terminated two days before the administration of the challenging dose of antigen.
The bronchoalveolar lavage (BAL) and cardiac cavity blood were derived from the animals 24 hours after administration of the challenging dose. The BAL was collected under anesthesia by lavaging the lungs with 5 mL of a physiological saline solution heated to 37° C. through the trachea, using a syringe dosing device.
The absolute number of cell elements in 1 μL of the lavage (cytosis) was counted in the bronchoalveolar lavage, using the Goryaev camera. Then, the BAL was centrifuged at 200 g for 10 minutes. The residue was used to prepare swabs that were fixed in methanol and stained according to Romanovsky-Giemsa to count endopulmonary cytogram.
The study comprised 3 experiments, wherein the first one was directed to the evaluation of the effect of claimed compounds 1-6 on the cell composition of the BAL, the second and the third experiments were aimed at evaluating the effect of compounds 1 and 2 on the cell composition of the BAL, the cell composition of the blood, and on the bronchospasm severity.

[2] = tested on: model of sephadex-induced eosinophilic lung inflammation in rats; assay: Content of cell elements in BAL in the model of sephadex-induced eosinophilic lung inflammation in rats; assay type: in vivo, male Wistar rats; details: Table 8; 0.5 mg/kg by inhalation, four times (reference preparation); BAL 48 hours after sephadex; n = 10
Protocol: The model of sephadex-induced eosinophilic lung inflammation in rats was realized by a standard method [Evaldsson C, Rydén I, Uppugunduri S. Isomaltitol exacerbates neutrophilia but reduces eosinophilia: new insights into the sephadex model of lung inflammation//Int Arch Allergy Immunol. 2011; 154(4):286-94]. Sephadex G-200 (Pharmacia, Sweden) was administered one time by inhalation to male Wistar rats at a dose of 5 mg/kg. The studied compounds were administered to the animals by the intragastric route four times: 24 hours and 1 hour before and 24 hours and 45 hours after administration of sephadex. The reference preparation, budesonide, was administered according to the same scheme, by inhalation at a dose of 0.5 mg/kg. Bronchoalveolar lavage was taken 48 hours after the inhalation of sephadex, and the total lymphocyte count and leukocyte formula in the lavage were determined. The number of rats in a group was 7 to 10.

[3] = tested on: model of leukotriene-induced eosinophilic lung inflammation in guinea pigs; assay: Content of cell elements in BAL in the model of leukotriene-induced eosinophilic lung inflammation in guinea pigs; assay type: in vivo, guinea pig; details: 0.8 mg/kg intragastric, one time one hour before LTD4 (reference preparation); BAL 48 hours after LTD4; n = 8
From the text: The model of leukotriene-induced eosinophilic lung inflammation in guinea pigs was realized by a standard method [Underwood DC1, Osborn R R, Newsholme S J, Torphy T J, Hay D W. Persistent airway eosinophilia after leukotriene (LT) D4 administration in the guinea pig: modulation by the LTD4 receptor antagonist, pranlukast, or an interleukin-5 monoclonal antibody// Am J Respir Crit Care Med. 1996 October; 154(4 Pt 1):850-7]. A solution of leukotriene D4 (LTD4, Cayman Chemical, USA) at a concentration of […] (a flow rate of 250 mL/hr) was inhaled to male guinea pigs (250-300 g) under conditions of a double-chamber plethysmograph (Emka Technologies, France) for one minute. The studied compound was administered to the animals by the intragastric route four times: 24 hours and 1 hour before and 24 hours and 45 hours after the inhalation of LTD4. The reference preparation, montelukast (0.8 mg/kg), was administered one time by the intragastric route one hour before the inhalation of LTD4. Bronchoalveolar lavage was taken 48 hours after the inhalation of LTD4, and the total lymphocyte count and leukocyte formula were determined in the lavage. The number of guinea pigs in a group was 8.

## CC1(C)CC(=O)N(CCc2cnc[nH]2)C(=O)C1 [Compound 3]
[1]
  Eosinophils in BAL: 0.93 ± 0.31*& 10^9/L
  Lymphocytes in BAL: 0.72 ± 0.08* 10^9/L
  Monocytes in BAL: 0.71 ± 0.18& 10^9/L
  Neutrophils in BAL: 0.36 ± 0.08 10^9/L

## CCCC1O[C@@H]2C[C@H]3[C@@H]4CCC5=CC(=O)C=C[C@]5(C)[C@H]4[C@@H](O)C[C@]3(C)[C@]2(C(=O)CO)O1 (stereo partly drawn) [Budesonide, budesonide, reference compound]
[2]
  Eosinophils, content of cell elements in 1 μL of BAL: 204 ± 84*& in 1 μL of BAL
  Leukocytes, content of cell elements in 1 μL of BAL: 1805 ± 318*& in 1 μL of BAL
  Lymphocytes, content of cell elements in 1 μL of BAL: 37 ± 10& in 1 μL of BAL
  Macrophages, content of cell elements in 1 μL of BAL: 1230 ± 205 in 1 μL of BAL
  Neutrophils, content of cell elements in 1 μL of BAL: 334 ± 119 in 1 μL of BAL

## O=C1CCCC(=O)N1CCc1nccs1 [Compound 6]
[1]
  Eosinophils in BAL: 0.60 ± 0.21*& 10^9/L
  Lymphocytes in BAL: 1.03 ± 0.24* 10^9/L
  Monocytes in BAL: 0.83 ± 0.18* 10^9/L
  Neutrophils in BAL: 0.97 ± 0.28* 10^9/L

## CC(C)(O)c1ccccc1CC[C@@H](SCC1(CC(=O)O)CC1)c1cccc(/C=C/c2ccc3ccc(Cl)cc3n2)c1 [Montelukast, montelukast, reference compound]
[3]
  Eosinophils, content of cell elements in 1 μL of BAL: 618 ± 116*& in 1 μL of BAL
  Leukocytes, content of cell elements in 1 μL of BAL: 24065 ± 415*& in 1 μL of BAL
  Lymphocytes, content of cell elements in 1 μL of BAL: 96 ± 39 in 1 μL of BAL
  Macrophages, content of cell elements in 1 μL of BAL: 1519 ± 263 in 1 μL of BAL
  Neutrophils, content of cell elements in 1 μL of BAL: 173 ± 41 in 1 μL of BAL

From patent US10220029B2, “Pharmaceutical composition comprising glutarimide derivatives and use thereof in the treatment of eosinophilic diseases” (OBSCHESTVO S ORGANICHENNOI OTVETSTVENNOSTIYU …, priority 2013, dated 2019)
